Data set [1] concerns the target T1, purified recombinant CDC25C enzyme (MBP-CDC25C protein) (Homo sapiens, UniProt P30307).
T1 construct: made in house
T1 sequence (P30307 1-473): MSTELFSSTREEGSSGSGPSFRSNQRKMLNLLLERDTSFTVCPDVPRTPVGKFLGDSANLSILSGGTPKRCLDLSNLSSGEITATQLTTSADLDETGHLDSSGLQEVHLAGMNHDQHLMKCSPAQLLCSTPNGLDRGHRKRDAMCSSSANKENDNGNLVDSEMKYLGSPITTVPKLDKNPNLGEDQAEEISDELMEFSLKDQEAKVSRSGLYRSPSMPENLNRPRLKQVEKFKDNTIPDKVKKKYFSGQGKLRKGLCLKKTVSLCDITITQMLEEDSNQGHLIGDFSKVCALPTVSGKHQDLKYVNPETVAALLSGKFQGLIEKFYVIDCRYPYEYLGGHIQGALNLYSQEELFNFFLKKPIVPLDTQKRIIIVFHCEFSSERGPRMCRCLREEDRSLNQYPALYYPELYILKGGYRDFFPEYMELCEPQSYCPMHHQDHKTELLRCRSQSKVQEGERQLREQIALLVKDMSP
Briefly: Phosphatase activity of the purified recombinant CDC25C enzyme (OMFP dephosphorylation, fluorescence). Conditions: OMFP 500 μM, 4 hours at 30° C., three independent experiments; nested upper bounds; read-out: IC50 for the phosphatase activity of the purified recombinant CDC25-C enzyme. In kind it is biochemical. As to the method:
i) Determination of the Phosphatase Activity of the Purified Recombinant CDC25C Enzyme:
The phosphatase activity of the MBP-CDC25C protein is evaluated through its dephosphorylation of 3-O-methylfluorescein-phosphate (OMFP) to form 3-O-methylfluorescein (OMF), determining the fluorescence of the reaction product at 475 nm. This assay can be used to identify inhibitors of the recombinant CDC25 enzyme. The preparation of the MBP-CDC25C fusion protein is described in the PCT patent application published under the number WO 01/44467.
The reaction is performed in 384-well plates in a final volume of 50 μl. The MBP-CDC25C protein (prepared as described hereinabove) is stored in the following elution buffer: 20 mM Tris-HCl pH 7.4; 250 mM NaCl; 1 mM EDTA; 1 mM dithiothreitol (DTT); 10 mM maltose. It is diluted to a concentration of 60 μM in the following reaction buffer: 50 mM Tris-HCl pH 8.2; 50 mM NaCl; 1 mM DTT; 20% glycerol. The background noise is determined using with the buffer without adding the enzyme. The products are tested at decreasing concentrations from 40 μM. The reaction is initiated by the addition of OMFP solution to a final concentration of 500 μM (prepared immediately before use from a 12.5 mM stock solution in 100% DMSO (Sigma #M2629)). After 4 hours at 30° C. in a disposable 384-well plate, the fluorescence measured at OD 475 nm is read on a Victor^2 plate reader (EGG-Wallac). The concentration that produces 50% inhibition of the enzyme reaction is calculated from three independent experiments. Only the values that fall within the linear part of the sigmoid curve are used for the linear regression analysis.

In turn, `Cl.O=c1c(NCCNc2cc(N3CCCC3)nc(N3CCCC3)n2)c(Nc2ccc(Cl)cc2)c1=O` showed a melting point greater than 370 °C. Turning to `COc1c(NCCNc2cc(N3CCCC3)nc(N3CCCC3)n2)c(=O)c1=O` [Example 1, 3-({2-[(2,6-dipyrrolidin-1-ylpyrimidin-4-yl)amino]ethyl}amino)-4-methoxycyclobut-3-ene-1,2-dione], the melting point was in the range of 116 to 118 °C. Besides, the IC50 in data set [1] was no more than 5 µM. In turn, `O=c1c(NCCNc2cc(N3CCCC3)nc(N3CCCC3)n2)c(N2CCCCC2)c1=O` [Example 2, 3-({2-[(2,6-dipyrrolidin-1-ylpyrimidin-4-yl)amino]ethyl}amino)-4-piperidin-1-ylcyclobut-3-ene-1,2-dione] came in with a melting point greater than 250 °C. The IC50 in data set [1] is no more than 5 µM. For the compound `CCCCNc1c(NCCNc2cc(N3CCCC3)nc(N3CCCC3)n2)c(=O)c1=O` [Example 3, 3-(butylamino)-4-({2-[(2,6-dipyrrolidin-1-ylpyrimidin-4-yl)amino]ethyl}amino)cyclobut-3-ene-1,2-dione], the melting point was in the range of 246 to 248 °C. For the same compound, in data set [1], the IC50 is no more than 1 µM. Compound `O=c1c(NCCNc2cc(N3CCCC3)nc(N3CCCC3)n2)c(N2CCOCC2)c1=O` [Example 4, 3-({2-[(2,6-dipyrrolidin-1-ylpyrimidin-4-yl)amino]ethyl}amino)-4-morpholin-4-ylcyclobut-3-ene-1,2-dione] yielded a melting point of 242 to 244 °C. For the same compound, in data set [1], the half-inhibitory concentration (IC50) is no more than 5 µM. Turning to `COc1c(NCCN(C)CCNc2cc(N3CCCC3)nc(N3CCCC3)n2)c(=O)c1=O` [Example 6], the melting point was in the range of 132 to 134 °C. In addition, the IC50 in data set [1] was no more than 5 µM.

For `CN(CCNc1cc(N2CCCC2)nc(N2CCCC2)n1)CCNc1c(O)c(=O)c1=O` [Example 7, 3-({2-[{2-[(2,6-dipyrrolidin-1-ylpyrimidin-4-yl)amino]ethyl}(methyl)amino]ethyl}amino)-4-hydroxycyclobut-3-ene-1,2-dione], the IC50 in data set [1] was no more than 5 µM. As to `O=c1c(NCCNc2cc(N3CCCC3)nc(N3CCCC3)n2)c(Nc2ccc(Cl)cc2)c1=O` [Example 9, 3-[(4-chlorophenyl)amino]-4-({2-[(2,6-dipyrrolidin-1-ylpyrimidin-4-yl)amino]ethyl}amino)cyclobut-3-ene-1,2-dione], the melting point was in the range of 251 to 253 °C. For the same compound, the half-maximal inhibitory concentration (IC50) in data set [1] is no more than 1 µM. With `O=S(=O)(O)O.O=c1c(NCCNc2cc(N3CCCC3)nc(N3CCCC3)n2)c(Nc2ccc(Cl)cc2)c1=O` [Example 9b, 3-[(4-chlorophenyl)amino]-4-({2-[(2,6-dipyrrolidin-1-ylpyrimidin-4-yl)amino]ethyl}amino)cyclobut-3-ene-1,2-dione sulfate], the melting point is 263 to 266 °C. Consider `O=P(O)(O)O.O=c1c(NCCNc2cc(N3CCCC3)nc(N3CCCC3)n2)c(Nc2ccc(Cl)cc2)c1=O` [Example 9c, 3-[(4-chlorophenyl)amino]-4-({2-[(2,6-dipyrrolidin-1-ylpyrimidin-4-yl)amino]ethyl}amino)cyclobut-3-ene-1,2-dione phosphate], for which the melting point lay in the range of 275 to 278 °C. `O=C(O)/C=C\C(=O)O.O=c1c(NCCNc2cc(N3CCCC3)nc(N3CCCC3)n2)c(Nc2ccc(Cl)cc2)c1=O` [Example 9d, 3-[(4-chlorophenyl)amino]-4-({2-[(2,6-dipyrrolidin-1-ylpyrimidin-4-yl)amino]ethyl}amino)cyclobut-3-ene-1,2-dione maleate]: the melting point lay in the range of 248 to 250 °C.

Take `O=c1c(NCCNc2cc(N3CCCC3)nc(N3CCCC3)n2)c(Nc2cccc(-c3nnn[nH]3)c2)c1=O` [Example 12, 3-({2-[(2,6-dipyrrolidin-1-ylpyrimidin-4-yl)amino]ethyl}amino)-4-{[3-(1H-tetrazol-5-yl)phenyl]amino}cyclobut-3-ene-1,2-dione]: the IC50 in data set [1] is no more than 5 µM.

For orientation: melting point means the temperature of the solid-liquid transition. As a reminder, the IC50 is the concentration that inhibits the measured activity by half.

For the origin of these results see patent US20100173910A1, “TRIAMINOPYRIMIDINE CYCLOBUTENEDIONE DERIVATIVES USED AS PHOSPHATASE CDC25 INHIBITORS” (IPDRN PHSTMS D.S.S., priority 2007, published 2010).
